Assay [1] deals with human recombinant full-length Btk enzyme (Homo sapiens, UniProt Q06187). Kind of assay: Omnia Continuous Read Kinase Assay, Btk inhibition. In kind it is biochemical. Further details: human recombinant full-length Btk enzyme. Conditions: 30 minutes pre-incubation at 27° C.; 0.5 nM to 10 μM. The source says: The following Example describes testing certain compounds according to the invention for inhibition of BTK activity. The Omnia® Continuous Read Kinase Assay uses an unnatural amino acid chelation enhanced fluorophore (Sox; 8-hydroxy-5-(N,N-dimethylsulfonamido)-2 methylquinoline) incorporated into a kinase-specific peptide substrate to characterize Btk enzyme kinetics and inhibition. Following Btk-mediated phosphorylation, a sensitive, highly quantifiable increase in real-time fluorescence is noted based upon the ability of chelated Mg2+ to form a bridge between Sox and the phosphate group on a tyrosine residue of the peptide substrate. The Omnia® continuous read assay was performed essentially as described by the vendor (Invitrogen; Carlsbad, Calif.). First, a 10× stock of human recombinant full-length Btk enzyme was prepared in Kinase Reaction Buffer. 5 μL of the 10× enzyme was pre-incubated with 0.5 μL of serially diluted compound prepared in 50% DMSO, in a 384-well microtiter plate for 30 minutes at 27° C. 1.13×ATP and the Tyr5-Sox conjugated peptide substrate were prepared in 1× Kinase Reaction Buffer. Kinase reactions were initiated by the addition of 45 μL of the 1.13×ATP-Sox peptide substrate master mix and monitored every 30 to 90 seconds for 60 minutes at λex360/λem485 in a Synergy plate reader. The IC50 values for each compound assayed were determined from test concentrations of 0.5 nM to 10 μM in half-log intervals performed in duplicate.
At the conclusion of each assay, progress curves from each well were examined for linear reaction kinetics and fit statistics (R2, 95% confidence interval, absolute sum of squares) using GraphPad software (GraphPad Prism version 5.01; San Diego, Calif.). Initial velocity (0 minutes to ˜30+ minutes) from each reaction was determined from the slope of a plot of relative fluorescence units versus time (minutes). Using control normalized % inhibition data, plots were constructed against inhibitor concentration to estimate IC50 from log [inhibitor] versus response using a variable slope model in GraphPad. The compound numbers correspond to the compound numbers in Table 1.

Assay [2] deals with PLCγ2 phosphorylation (Phospho Y-1217 PLCγ2) in Ramos cells. Kind of assay: Btk Ramos cell signaling immunoblot analysis, phospho-PLCγ2. In kind it is cell-based. Conditions: 1 hour compound incubation, anti-human IgM stimulation, read-out: pPLCγ2 EC50. The procedure:
(§1) The following example describes testing certain compounds according to the invention for inhibition of BTK activity. Ramos cells were incubated in serum-free RPMI medium for 1-1.5 hours. Cells were then centrifuged for 5 minutes at 1100 RPM and resuspended in serum-free RPMI in 15 mL roundbottom Corning tubes (˜2×10^6 cells/mL in 4 mL/tube). The compound was diluted in DMSO and was added to the cells to achieve a final concentration of 0.0003, 0.001, 0.003, 0.01, 0.03, 0.1, 0.3, and 1.0 μM. Cells were then incubated for 1 hour at 37° C. Following incubation, cells were spun at 1100 RPM for 5 minutes and then resuspended in 100 μL of serum-free RPMI. […] Supernatant was transferred to a fresh tube and analyzed for protein content. […]
(§2) 10 μg of protein was denatured by adding 1:10 (v:v) of NuPage Reducing Agent plus 1:4 (v:v) of LDS Loading Buffer. […] The membrane was then scanned on a LiCor Odyssey Scanner using infrared fluorescence detection.
(§3) Data analysis was accomplished using the analysis package found in Odyssey Infrared Imaging System software in which intensities of total Btk and phospho-Btk were measured. Phospho-Btk was normalized to total Btk protein in each lane as a loading control and results are expressed as % activity compared to the DMSO control (100%) Inhibition of phospho-PLCγ2 was quantitated in a similar manner. […]

The target in assay [3] is T1, BTK autophosphorylation (Phospho Y223 Btk) in Ramos cells (Homo sapiens, UniProt Q06187).
T1 construct: endogenous in cells; host or cells: Ramos cells
The assay can be described thus: Btk Ramos cell signaling immunoblot analysis, phospho-Btk. The note with it: 1 hour compound incubation, anti-human IgM stimulation, phospho-Btk normalized to total Btk, read-out: pBtk EC50. In kind it is cell-based. As to the method:
as §1, §2, §3

T1 sequence (Q06187 whole entry): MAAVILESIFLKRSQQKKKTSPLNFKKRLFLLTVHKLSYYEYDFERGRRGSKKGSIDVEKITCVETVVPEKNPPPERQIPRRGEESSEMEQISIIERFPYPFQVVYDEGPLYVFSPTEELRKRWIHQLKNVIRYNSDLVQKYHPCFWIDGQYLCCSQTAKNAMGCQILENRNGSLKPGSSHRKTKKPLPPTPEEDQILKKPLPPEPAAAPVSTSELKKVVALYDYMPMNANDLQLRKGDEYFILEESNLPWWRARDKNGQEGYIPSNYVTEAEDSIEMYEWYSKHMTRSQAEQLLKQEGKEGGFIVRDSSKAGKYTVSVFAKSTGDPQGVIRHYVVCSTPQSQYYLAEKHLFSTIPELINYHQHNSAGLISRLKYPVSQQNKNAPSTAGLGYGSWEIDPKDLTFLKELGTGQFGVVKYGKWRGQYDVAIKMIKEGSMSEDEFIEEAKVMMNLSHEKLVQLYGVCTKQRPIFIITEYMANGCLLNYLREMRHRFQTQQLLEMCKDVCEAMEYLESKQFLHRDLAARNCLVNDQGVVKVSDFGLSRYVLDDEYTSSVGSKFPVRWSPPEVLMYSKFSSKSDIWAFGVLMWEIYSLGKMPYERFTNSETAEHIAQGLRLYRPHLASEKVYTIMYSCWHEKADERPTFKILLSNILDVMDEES
Sequence of human recombinant full-length Btk enzyme (Q06187 whole entry): as above

As a reminder, the IC50 is the concentration at which inhibition is half-maximal. A word on the EC50: it is the concentration that produces a half-maximal response. As for `C=CC(=O)Nc1cccc(Nc2nc(Nc3ccc(OCCO)cc3)ncc2F)c1` [Compound I-1, N-(3-((5-fluoro-2-((4-(2-hydroxyethoxy)phenyl)amino)pyrimidin-4-yl)amino)phenyl)acrylamide], in assay [1], the IC50 is at most 10 nM. The EC50 in assay [2] and in assay [3] was under 10 nM throughout.

Turning to `C=CC(=O)Nc1cccc(Nc2nc(Nc3ccc(O)cc3)ncc2F)c1` [Compound I-3, N-(3-((5-fluoro-2-((4-hydroxyphenyl)amino)pyrimidin-4-yl)amino)phenyl)acrylamide], the IC50 in assay [1] is at most 10 nM. Further, the EC50 in assay [2] and in assay [3] was 10 to 50 nM each time.

The record behind these values is patent US9415049B2, “Heteroaryl compounds and uses thereof” (Celgene Avilomics Research, Inc., priority 2013, dated 2016).
